Measurements published in ChEMBL document CHEMBL1143424, “Diversity of penA alterations and subtypes in Neisseria gonorrhoeae strains from Sydney, Australia, that are less susceptible to ceftriaxone” (2007).
≈ marks a conversion by molar mass, not a printed value.

Tests used:
Neisseria gonorrhoeae [1] = assay: microbe, parasite or virus in culture
Description: Antimicrobial activity against Neisseria gonorrhoeae isolate with PBP2 pattern 13 mutant NG-MAST sequence type 1409 by agar plate dilution method

Neisseria gonorrhoeae [2] = assay: microbe, parasite or virus in culture; remark: listed apart in the source
Description: Antimicrobial activity against Neisseria gonorrhoeae isolate with PBP2 pattern 10 mutant NG-MAST sequence type 1414 by agar plate dilution method

Neisseria gonorrhoeae [3] = assay: microbe, parasite or virus in culture; remark: listed apart in the source
Description: Antimicrobial activity against Neisseria gonorrhoeae isolate with PBP2 pattern 13 mutant NG-MAST sequence type 1623 by agar plate dilution method

Neisseria gonorrhoeae [4] = assay: microbe, parasite or virus in culture; remark: listed apart in the source
Description: Antimicrobial activity against Neisseria gonorrhoeae isolate with PBP2 pattern 10 mutant NG-MAST sequence type 326 by agar plate dilution method

Neisseria gonorrhoeae [5] = assay: microbe, parasite or virus in culture; remark: listed apart in the source
Description: Antimicrobial activity against Neisseria gonorrhoeae isolate with PBP2 pattern 5 mutant NG-MAST sequence type 1410 by agar plate dilution method

Neisseria gonorrhoeae [6] = assay: microbe, parasite or virus in culture; remark: listed apart in the source
Description: Antimicrobial activity against Neisseria gonorrhoeae isolate with PBP2 pattern 4 mutant NG-MAST sequence type 69 by agar plate dilution method

Neisseria gonorrhoeae [7] = assay: microbe, parasite or virus in culture; remark: listed apart in the source
Description: Antimicrobial activity against Neisseria gonorrhoeae isolate with PBP2 pattern 17 mutant NG-MAST sequence type 1342 by agar plate dilution method

Neisseria gonorrhoeae [8] = assay: microbe, parasite or virus in culture; remark: listed apart in the source
Description: Antimicrobial activity against Neisseria gonorrhoeae isolate with PBP2 pattern 7 mutant NG-MAST sequence type 1622 by agar plate dilution method

Neisseria gonorrhoeae [9] = assay: microbe, parasite or virus in culture; remark: listed apart in the source
Description: Antimicrobial activity against Neisseria gonorrhoeae isolate with PBP2 pattern 18 mutant NG-MAST sequence type 864 by agar plate dilution method

Neisseria gonorrhoeae [10] = assay: microbe, parasite or virus in culture; remark: listed apart in the source
Description: Antimicrobial activity against Neisseria gonorrhoeae isolate with PBP2 pattern 10 mutant NG-MAST sequence type 925 by agar plate dilution method

Neisseria gonorrhoeae [11] = assay: microbe, parasite or virus in culture; remark: listed apart in the source
Description: Antimicrobial activity against Neisseria gonorrhoeae isolate with PBP2 pattern 11 mutant NG-MAST sequence type 1420 by agar plate dilution method

Neisseria gonorrhoeae [12] = assay: microbe, parasite or virus in culture; remark: listed apart in the source
Description: Antimicrobial activity against Neisseria gonorrhoeae isolate with PBP2 pattern 10 mutant NG-MAST sequence type 835 by agar plate dilution method

Neisseria gonorrhoeae [13] = assay: microbe, parasite or virus in culture; remark: listed apart in the source
Description: Antimicrobial activity against Neisseria gonorrhoeae isolate with PBP2 pattern 5 mutant NG-MAST sequence type 1688 by agar plate dilution method

Neisseria gonorrhoeae [14] = assay: microbe, parasite or virus in culture; remark: listed apart in the source
Description: Antimicrobial activity against Neisseria gonorrhoeae isolate with PBP2 pattern 13 mutant NG-MAST sequence type 1676 by agar plate dilution method

Neisseria gonorrhoeae [15] = assay: microbe, parasite or virus in culture; remark: listed apart in the source
Description: Antimicrobial activity against Neisseria gonorrhoeae isolate with PBP2 pattern 9 mutant NG-MAST sequence type 21 by agar plate dilution method

Neisseria gonorrhoeae [16] = assay: Antimicrobial activity against Neisseria gonorrhoeae isolate with PBP2 pattern 7 mutant NG-MAST sequence type 1422 by agar plate dilution method; type: functional
Neisseria gonorrhoeae [17] = assay: microbe, parasite or virus in culture; remark: listed apart in the source
Description: Antimicrobial activity against Neisseria gonorrhoeae isolate bropyst serotype with PBP2 pattern 12 mutant NG-MAST sequence type 604 by agar plate dilution method

Neisseria gonorrhoeae [18] = assay: Antimicrobial activity against Neisseria gonorrhoeae isolate with PBP2 pattern 13 mutant NG-MAST sequence type 1413 by agar plate dilution method; type: functional
Neisseria gonorrhoeae [19] = assay: microbe, parasite or virus in culture; remark: listed apart in the source
Description: Antimicrobial activity against Neisseria gonorrhoeae isolate with PBP2 pattern 12 mutant NG-MAST sequence type 1426 by agar plate dilution method

Neisseria gonorrhoeae [20] = assay: Antimicrobial activity against Neisseria gonorrhoeae isolate with PBP2 pattern 13 mutant NG-MAST sequence type 1148 by agar plate dilution method; type: functional
Neisseria gonorrhoeae [21] = assay: microbe, parasite or virus in culture; remark: listed apart in the source
Description: Antimicrobial activity against Neisseria gonorrhoeae isolate with PBP2 pattern 12 mutant NG-MAST sequence type 604 by agar plate dilution method

Neisseria gonorrhoeae [22] = assay: microbe, parasite or virus in culture; remark: listed apart in the source
Description: Antimicrobial activity against Neisseria gonorrhoeae isolate with PBP2 pattern 9 mutant NG-MAST sequence type 5 by agar plate dilution method

Neisseria gonorrhoeae [23] = assay: microbe, parasite or virus in culture; remark: listed apart in the source
Description: Antimicrobial activity against Neisseria gonorrhoeae isolate with PBP2 pattern 12 mutant NG-MAST sequence type 1703 by agar plate dilution method

Neisseria gonorrhoeae [24] = assay: Antimicrobial activity against Neisseria gonorrhoeae isolate with PBP2 pattern 17 mutant NG-MAST sequence type 1620 by agar plate dilution method; type: functional
Neisseria = assay: Antimicrobial activity against multiresistant Gonococcus; type: functional
Neisseria gonorrhoeae [25] = assay: Antimicrobial activity against Neisseria gonorrhoeae isolate with PBP2 pattern 4 mutant NG-MAST sequence type 327 by agar plate dilution method; type: functional
Neisseria gonorrhoeae [26] = assay: Antimicrobial activity against Neisseria gonorrhoeae isolate with PBP2 pattern 13 mutant NG-MAST sequence type 1425 by agar plate dilution method; type: functional
Neisseria gonorrhoeae [27] = assay: microbe, parasite or virus in culture; remark: listed apart in the source
Description: Antimicrobial activity against Neisseria gonorrhoeae isolate with PBP2 pattern 7 mutant NG-MAST sequence type 1619 by agar plate dilution method

Neisseria gonorrhoeae [28] = assay: Antimicrobial activity against Neisseria gonorrhoeae isolate with PBP2 pattern 18 mutant NG-MAST sequence type 1621 by agar plate dilution method; type: functional
Neisseria gonorrhoeae [29] = assay: microbe, parasite or virus in culture; remark: listed apart in the source
Description: Antimicrobial activity against Neisseria gonorrhoeae isolate with PBP2 pattern 11 mutant NG-MAST sequence type 5 by agar plate dilution method

Neisseria gonorrhoeae [30] = assay: microbe, parasite or virus in culture; remark: listed apart in the source
Description: Antimicrobial activity against Neisseria gonorrhoeae isolate with PBP2 pattern 10 mutant NG-MAST sequence type 1424 by agar plate dilution method

Neisseria gonorrhoeae [31] = assay: microbe, parasite or virus in culture; remark: listed apart in the source
Description: Antimicrobial activity against Neisseria gonorrhoeae isolate with PBP2 pattern 20 mutant NG-MAST sequence type 211 by agar plate dilution method

Neisseria gonorrhoeae [32] = assay: microbe, parasite or virus in culture; remark: listed apart in the source
Description: Antimicrobial activity against Neisseria gonorrhoeae isolate with PBP2 pattern 13 mutant NG-MAST sequence type 1624 by agar plate dilution method

Neisseria gonorrhoeae [33] = assay: microbe, parasite or virus in culture; remark: listed apart in the source
Description: Antimicrobial activity against Neisseria gonorrhoeae isolate with PBP2 pattern 10 mutant NG-MAST sequence type 1677 by agar plate dilution method

CO/N=C(\C(=O)N[C@@H]1C(=O)N2C(C(=O)O)=C(CSc3nc(=O)c(O)nn3C)CS[C@H]12)c1csc(N)n1 [CEFTRIAXONE]
MIC (Neisseria gonorrhoeae [1]): 0.06 µg/mL (≈ 0.108 µM) | MIC (Neisseria gonorrhoeae [2]): 0.06 µg/mL (≈ 0.108 µM) | MIC (Neisseria gonorrhoeae [3]): 0.06 µg/mL (≈ 0.108 µM) | MIC (Neisseria gonorrhoeae [4]): 0.06 µg/mL (≈ 0.108 µM) | MIC (Neisseria gonorrhoeae [5]): 0.06 µg/mL (≈ 0.108 µM) | MIC (Neisseria gonorrhoeae [6]): 0.06 µg/mL (≈ 0.108 µM) | MIC (Neisseria gonorrhoeae [7]): 0.06 µg/mL (≈ 0.108 µM) | MIC (Neisseria gonorrhoeae [8]): 0.06 µg/mL (≈ 0.108 µM) | MIC (Neisseria gonorrhoeae [9]): 0.06 µg/mL (≈ 0.108 µM) | MIC (Neisseria gonorrhoeae [10]): 0.06 µg/mL (≈ 0.108 µM) | MIC (Neisseria gonorrhoeae [11]): 0.06 µg/mL (≈ 0.108 µM) | MIC (Neisseria gonorrhoeae [12]): 0.06 µg/mL (≈ 0.108 µM) | MIC (Neisseria gonorrhoeae [13]): 0.06 µg/mL (≈ 0.108 µM) | MIC (Neisseria gonorrhoeae [14]): 0.06 µg/mL (≈ 0.108 µM) | MIC (Neisseria gonorrhoeae [15]): 0.06 µg/mL (≈ 0.108 µM) | MIC (Neisseria gonorrhoeae [16]): 0.12 µg/mL (≈ 0.216 µM) | MIC (Neisseria gonorrhoeae [17]): 0.06 µg/mL (≈ 0.108 µM) | MIC (Neisseria gonorrhoeae [18]): 0.12 µg/mL (≈ 0.216 µM) | MIC (Neisseria gonorrhoeae [19]): 0.06 µg/mL (≈ 0.108 µM) | MIC (Neisseria gonorrhoeae [20]): 0.12 µg/mL (≈ 0.216 µM) | MIC (Neisseria gonorrhoeae [21]): 0.06 µg/mL (≈ 0.108 µM) | MIC (Neisseria gonorrhoeae [22]): 0.06 µg/mL (≈ 0.108 µM) | MIC (Neisseria gonorrhoeae [23]): 0.06 µg/mL (≈ 0.108 µM) | MIC (Neisseria gonorrhoeae [24]): 0.12 µg/mL (≈ 0.216 µM) | MIC (Neisseria): 0.5 µg/mL (≈ 0.902 µM) | MIC (Neisseria gonorrhoeae [25]): 0.12 µg/mL (≈ 0.216 µM) | MIC (Neisseria gonorrhoeae [26]): 0.12 µg/mL (≈ 0.216 µM) | MIC (Neisseria gonorrhoeae [27]): 0.06 µg/mL (≈ 0.108 µM) | MIC (Neisseria gonorrhoeae [28]): 0.12 µg/mL (≈ 0.216 µM) | MIC (Neisseria gonorrhoeae [29]): 0.06 µg/mL (≈ 0.108 µM) | MIC (Neisseria gonorrhoeae [30]): 0.06 µg/mL (≈ 0.108 µM) | MIC (Neisseria gonorrhoeae [31]): 0.06 µg/mL (≈ 0.108 µM) | MIC (Neisseria gonorrhoeae [32]): 0.06 µg/mL (≈ 0.108 µM) | MIC (Neisseria gonorrhoeae [33]): 0.06 µg/mL (≈ 0.108 µM)
